Where two headings read alike, the source gives them in different places.

One experiment concerns the target human GLP1R (Homo sapiens, UniProt P43220). Kind of experiment: cAMP activity assay, cells expressing human GLP1R. It counts as cell-based.
The next experiment deals with T1, human GCGR (Homo sapiens, UniProt P47871).
T1 construct: expressed in transfected cells; grown with Blasticidin and Hygromycin
Kind of experiment: cAMP activity assay, cells expressing human GCGR.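 On all read-outs here: cAMP production read by luminescence after one hour of peptide exposure at room temperature, EC50 from logistic curve fit, native glucagon and GLP-1 as control peptides.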 It counts as cell-based. As to conditions: for GCGR/GLP1R ratio: Table 5, ratio of hGCGR EC50 to hGLP1R EC50.

Sequence of human GLP1R (P43220 24-463): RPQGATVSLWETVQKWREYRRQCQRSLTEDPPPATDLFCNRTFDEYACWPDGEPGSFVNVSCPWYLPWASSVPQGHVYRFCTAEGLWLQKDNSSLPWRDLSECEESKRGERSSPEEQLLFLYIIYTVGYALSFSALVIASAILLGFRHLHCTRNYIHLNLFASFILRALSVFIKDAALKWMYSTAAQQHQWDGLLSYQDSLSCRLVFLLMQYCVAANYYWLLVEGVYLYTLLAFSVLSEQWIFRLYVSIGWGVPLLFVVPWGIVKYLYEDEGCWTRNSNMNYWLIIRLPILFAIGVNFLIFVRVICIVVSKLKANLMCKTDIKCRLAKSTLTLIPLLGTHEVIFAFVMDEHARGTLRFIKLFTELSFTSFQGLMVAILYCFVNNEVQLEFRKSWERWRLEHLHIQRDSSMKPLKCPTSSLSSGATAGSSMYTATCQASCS
T1 sequence (P47871 26-477): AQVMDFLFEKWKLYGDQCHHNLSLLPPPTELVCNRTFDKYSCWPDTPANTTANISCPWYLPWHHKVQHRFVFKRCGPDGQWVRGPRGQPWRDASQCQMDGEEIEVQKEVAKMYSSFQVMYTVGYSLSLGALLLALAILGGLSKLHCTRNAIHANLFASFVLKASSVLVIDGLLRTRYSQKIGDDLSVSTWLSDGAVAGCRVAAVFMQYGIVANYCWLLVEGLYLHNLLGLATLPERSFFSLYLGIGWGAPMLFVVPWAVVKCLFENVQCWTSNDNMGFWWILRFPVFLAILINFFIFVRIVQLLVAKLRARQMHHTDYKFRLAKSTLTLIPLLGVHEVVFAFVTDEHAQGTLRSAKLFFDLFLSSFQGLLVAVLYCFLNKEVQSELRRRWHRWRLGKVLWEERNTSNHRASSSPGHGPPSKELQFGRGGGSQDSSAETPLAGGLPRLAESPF
Experimental for human GCGR: Activity of the incretin peptides or the conjugates at the Glucagon receptor (GCGR) and GLP-1 receptor (GLP1R) may be measured in a cAMP activity assay as follows.
Peptides are dissolved in 100% DMSO and serially diluted to generate 10 point titrations. The peptide solutions are then transferred into 384-well assay plates (150 nL/well). Assay ready frozen cells expressing human GLP1R or human GCGR are suspended in growth media consisting of DMEM medium (GIBCO), 10% FBS (GIBCO), 1×NEAA(GIBCO), 1×P/S (GIBCO), 10 μg/mL Blasticidin (GIBCO) and 200 μg/mL Hygromycin (GIBCO). […] The cell suspensions (15 μL) are then added to the assay plates containing the peptide solutions (30,000 cells/well for human GCGR; 10,000 cells/well for human GLP1R). The cells are incubated for one hour at room temperature in the dark.
Production of cAMP may be determined using HitHunterr cAMPXS kits (DiscoverX) following the manufacturer's protocol. The plates are incubated for overnight at room temperature in the dark. Luminescence may be measured using an EnVision Multilabel plate reader (Perkin Elmer). Native GLP-1 and Glucagon (Bachem) may be used as control peptides. EC50 values may be calculated using uses a 4 parameter logistic fit based on the Levenberg-Marquardt algorithm.

As a reminder, the EC50 is the midpoint of the concentration-response curve. Take `CCCCCCCCCCCCCCCC(=O)N[C@@H](CCC(=O)N[C@@H](CCC(=O)NCCCC[C@H](NC(=O)[C@H](CC(=O)O)NC(=O)[C@H](CO)NC(=O)[C@@H](NC(=O)[C@H](Cc1ccccc1)NC(=O)[C@@H](NC(=O)CNC(=O)[C@H](CCC(N)=O)NC(=O)C(C)(C)NC(=O)[C@@H](N)Cc1c[nH]cn1)[C@@H](C)O)[C@@H](C)O)C(=O)N[C@@H](CO)C(=O)N[C@@H](CCCCN)C(=O)N[C@@H](Cc1ccc(O)cc1)C(=O)N[C@@H](CC(C)C)C(=O)N[C@@H](CC(=O)O)C(=O)NC(C)(C)C(=O)N[C@@H](CCCNC(=N)N)C(=O)N[C@@H](C)C(=O)N[C@@H](C)C(=O)N[C@@H](CCC(N)=O)C(=O)N[C@@H](CC(=O)O)C(=O)N[C@@H](Cc1ccccc1)C(=O)N[C@H](C(=O)N[C@@H](CCC(N)=O)C(=O)N[C@@H](Cc1c[nH]c2ccccc12)C(=O)N[C@@H](CC(C)C)C(=O)N[C@@H](CC(C)C)C(=O)N[C@@H](CC(=O)O)C(=O)N[C@H](C(=O)N[C@@H](CCCCN)C(=O)N[C@@H](CCCCNC(=O)COCCOCCNC(=O)CCCCN=[N+]=[N-])C(N)=O)[C@@H](C)O)C(C)C)C(=O)O)C(=O)O` [PEP20]: the midpoint of the response on human GLP1R, the EC50, lay at 0.05 nM. Also, on human GCGR, the midpoint of the response, the EC50, lay at 0.1 nM and the GCGR/GLP1R ratio stood at 2.0.

On to `CC(C)C[C@H](NC(=O)[C@H](Cc1ccc(O)cc1)NC(=O)[C@H](CCCCN)NC(=O)[C@H](CO)NC(=O)[C@H](Cc1ccc(O)cc1)NC(=O)[C@H](CC(=O)O)NC(=O)[C@H](CO)NC(=O)[C@@H](NC(=O)[C@H](Cc1ccccc1)NC(=O)[C@@H](NC(=O)CNC(=O)[C@H](CCC(N)=O)NC(=O)[C@@H](CO)NC(=O)[C@@H](N)Cc1c[nH]cn1)[C@@H](C)O)[C@@H](C)O)C(=O)N[C@@H](CC(=O)O)C(=O)N[C@@H](CCC(=O)O)C(=O)N[C@@H](CCCNC(=N)N)C(=O)N[C@@H](C)C(=O)N[C@@H](C)C(=O)N[C@@H](CCCCNC(=O)COCCOCCNC(=O)COCCOCCNC(=O)CC[C@H](NC(=O)CCCCCCCCCCCCCCCN=[N+]=[N-])C(=O)O)C(=O)N[C@@H](CC(=O)O)C(=O)N[C@@H](Cc1ccccc1)C(=O)N[C@H](C(=O)N[C@@H](CCC(N)=O)C(=O)N[C@@H](Cc1c[nH]c2ccccc12)C(=O)N[C@@H](CC(C)C)C(=O)N[C@@H](CC(C)C)C(=O)N[C@@H](CC(=O)O)C(=O)N[C@H](C(N)=O)[C@@H](C)O)C(C)C` [PEP26], for which the EC50 on human GLP1R and on human GCGR was 0.12 nM each time. Further, at human GCGR, the GCGR/GLP1R ratio amounted to 1.0.

Compound `CC(C)C[C@H](NC(=O)[C@H](Cc1ccc(O)cc1)NC(=O)[C@H](CCCCN)NC(=O)[C@H](CO)NC(=O)[C@H](Cc1ccc(O)cc1)NC(=O)[C@H](CC(=O)O)NC(=O)[C@H](CO)NC(=O)[C@@H](NC(=O)[C@H](Cc1ccccc1)NC(=O)[C@@H](NC(=O)CNC(=O)[C@H](CCC(N)=O)NC(=O)[C@@H](CO)NC(=O)[C@@H](N)Cc1c[nH]cn1)[C@@H](C)O)[C@@H](C)O)C(=O)N[C@@H](CC(=O)O)C(=O)N[C@@H](CCC(=O)O)C(=O)N[C@@H](CCCNC(=N)N)C(=O)N[C@@H](C)C(=O)N[C@@H](C)C(=O)N[C@@H](CCC(N)=O)C(=O)N[C@@H](CCCCNC(=O)COCCOCCNC(=O)COCCOCCNC(=O)CC[C@H](NC(=O)CCCCCCCCCCCCCCCN=[N+]=[N-])C(=O)O)C(=O)N[C@@H](Cc1ccccc1)C(=O)N[C@H](C(=O)N[C@@H](CCC(N)=O)C(=O)N[C@@H](Cc1c[nH]c2ccccc12)C(=O)N[C@@H](CC(C)C)C(=O)N[C@@H](CC(C)C)C(=O)N[C@@H](CC(=O)O)C(=O)N[C@H](C(N)=O)[C@@H](C)O)C(C)C` [PEP27] displayed an EC50 at human GLP1R of 0.06 nM. Besides, at human GCGR, the half-maximal effective concentration (EC50) is 0.39 nM and the GCGR/GLP1R ratio is listed as 6.5.

As to `CC(C)C[C@H](NC(=O)[C@H](Cc1c[nH]c2ccccc12)NC(=O)[C@H](CCC(N)=O)NC(=O)[C@@H](NC(=O)[C@H](Cc1ccccc1)NC(=O)[C@H](CC(=O)O)NC(=O)[C@H](CCC(N)=O)NC(=O)[C@H](C)NC(=O)[C@H](C)NC(=O)[C@H](CCCNC(=N)N)NC(=O)C(C)(C)NC(=O)[C@H](CC(=O)O)NC(=O)[C@H](CC(C)C)NC(=O)[C@H](Cc1ccc(O)cc1)NC(=O)[C@H](CCCCN)NC(=O)[C@H](CO)NC(=O)[C@H](Cc1ccc(O)cc1)NC(=O)[C@H](CC(=O)O)NC(=O)[C@H](CO)NC(=O)[C@@H](NC(=O)[C@H](Cc1ccccc1)NC(=O)[C@@H](NC(=O)CNC(=O)[C@H](CCC(N)=O)NC(=O)C(C)(C)NC(=O)[C@@H](N)Cc1c[nH]cn1)[C@@H](C)O)[C@@H](C)O)C(C)C)C(=O)N[C@@H](CC(C)C)C(=O)N[C@@H](CC(=O)O)C(=O)N[C@H](C(=O)N[C@@H](CCCCN)C(=O)N[C@@H](CCCCNC(=O)COCCOCCNC(=O)COCCOCCNC(=O)CC[C@H](NC(=O)CCCCCCCCCCCCCCCN=[N+]=[N-])C(=O)O)C(N)=O)[C@@H](C)O` [PEP28], the EC50 at human GLP1R came out at 0.16 nM; on human GCGR, 0.17 nM. Moreover, the GCGR/GLP1R ratio at human GCGR came out at 1.1.

Take `CC(C)C[C@H](NC(=O)[C@H](Cc1ccc(O)cc1)NC(=O)[C@H](CCCCN)NC(=O)[C@H](CO)NC(=O)[C@H](Cc1ccc(O)cc1)NC(=O)[C@H](CC(=O)O)NC(=O)[C@H](CO)NC(=O)[C@@H](NC(=O)[C@H](Cc1ccccc1)NC(=O)[C@@H](NC(=O)CNC(=O)[C@H](CCC(N)=O)NC(=O)C(C)(C)NC(=O)[C@@H](N)Cc1c[nH]cn1)[C@@H](C)O)[C@@H](C)O)C(=O)N[C@@H](CC(=O)O)C(=O)N[C@@H](C)C(=O)N[C@@H](CCCNC(=N)N)C(=O)N[C@@H](C)C(=O)N[C@@H](C)C(=O)N[C@@H](CCCCNC(=O)COCCOCCNC(=O)COCCOCCNC(=O)CC[C@H](NC(=O)CCCCCCCCCCCCCCCCC(=O)O)C(=O)O)C(=O)N[C@@H](CC(=O)O)C(=O)N[C@@H](Cc1ccccc1)C(=O)N[C@H](C(=O)N[C@@H](CCCCN=[N+]=[N-])C(=O)N[C@@H](Cc1c[nH]c2ccccc12)C(=O)N[C@@H](CC(C)C)C(=O)N[C@@H](CCS(C)(=O)=O)C(=O)N[C@@H](CC(=O)O)C(=O)N[C@H](C(N)=O)[C@@H](C)O)C(C)C` [PEP30]: the half-maximal effective concentration (EC50) at human GLP1R (Table 5, incretin peptides, cAMP, read-out: hGLP1R EC50) stood at 0.5 nM. Moreover, the GCGR/GLP1R ratio at human GCGR turned out to be 4.5.

Compound `CCCCCCCCCCCCCCCC(=O)N[C@@H](CCC(=O)N[C@@H](CCC(=O)NCCCC[C@H](NC(=O)[C@](C)(CC(=O)O)NC(=O)[C@H](CO)NC(=O)[C@@H](NC(=O)[C@H](Cc1ccccc1)NC(=O)[C@@H](NC(=O)CNC(=O)[C@H](CCC(N)=O)NC(=O)[C@@H](CO)NC(=O)[C@@H](N)Cc1c[nH]cn1)[C@@H](C)O)[C@@H](C)O)C(=O)N[C@@H](CO)C(=O)N[C@@H](CCCCN)C(=O)N[C@@H](Cc1ccc(O)cc1)C(=O)N[C@@H](CC(C)C)C(=O)N[C@@H](CC(=O)O)C(=O)N[C@@H](CCC(=O)O)C(=O)N[C@@H](CCCNC(=N)N)C(=O)N[C@@H](C)C(=O)N[C@@H](C)C(=O)N[C@@H](CCC(N)=O)C(=O)N[C@@H](CC(=O)O)C(=O)N[C@@H](Cc1ccccc1)C(=O)N[C@H](C(=O)N[C@@H](CCCCN=[N+]=[N-])C(=O)N[C@@H](Cc1c[nH]c2ccccc12)C(=O)N[C@@H](CC(C)C)C(=O)N[C@@H](CCS(C)(=O)=O)C(=O)N[C@@H](CC(=O)O)C(=O)N[C@H](C(N)=O)[C@@H](C)O)C(C)C)C(=O)O)C(=O)O` [PEP32] showed an EC50 on human GLP1R of 0.04 nM. On human GCGR, the half-maximal effective concentration (EC50) is 0.06 nM and the GCGR/GLP1R ratio amounted to 1.5.

The values are drawn from patent US20190175744A1, “INSULIN-INCRETIN CONJUGATES” (Merck Sharp & Dohme Corp., priority 2016, published 2019).
